Results taken from patent publication US20250319139A1, “METHODS FOR TREATING NEUROINFLAMMATION” (University of Virginia Patent Foundation, priority 2021, published 2025).

Legend:
C57BL/6J mice [1] = assay: Neurological deficit scores after MCAO; assay type: in vivo, mouse; conditions: young mice, 100 mg/kg intraperitoneal 1 h before and 6 h after 120-min MCAO; 24 h after MCAO; vs saline
Protocol: (§1) As we described previously, left MCAO with intravascular suture technique was performed to mice. Briefly, mice were anesthetized with isoflurane and the rectal temperature was maintained at 37±0.5° C. by the feedback-controlled heating system. A monofilament nylon suture (catalog number: 1622-A1, Beijing CiNontech Co. Ltd., Beijing, China) was used to induce the MCAO via the external carotid artery to the left internal carotid artery until slight resistance was felt. Mice were re-anesthetized by isoflurane and the sutures were removed at 60 min (only for the set of experiments of old mice with fecal transplantation; this selection was because of a high mortality rate after a longer MCAO) or 120 min (for all other sets of experiments) after the onset of MCAO.
Neurological deficit scores were tested 24 h after the stroke by a blinded investigator [25, 26]. Briefly, mice were scored as follows: zero, no apparent deficits; one, failure to extend right forepaw fully; two, decreased grip of the right forelimb; three, spontaneous movement in all directions, contralateral circling only if pulled by the tail; four, circling or walking to the right; five, walking only if stimulated; six, unresponsiveness to stimulation and with depressed level of consciousness; and seven, dead.

IL-1β [2] = assay: ELISA of IL-1β in the brain; assay type: in vivo, mouse; conditions: young mice, 100 mg/kg intraperitoneal 1 h before and 6 h after 120-min MCAO; 24 h after MCAO; vs saline
Protocol: (§2) Mice were weighed and anesthetized with isoflurane at 24 h after MCAO. Blood samples were obtained from the right heart after thoracotomy. Blood was centrifuged (13,000 g, 4° C.) after it had been placed at 4° C. for 2 h for the collection of serum. After the collection of blood, mice were perfused with 4° C. saline for brain tissue harvesting. The cerebral cortex (anteroposterior: -1.5 to 2.5 mm, mediolateral: 1.0 to 3.0 mm) was dissected out. All dissection procedures were performed on ice. IL-10, IL-17, IL-1β and IL-6 in the serum and brain were detected by using ELISA kits (catalog number: M1000B, M1700, MLB00C and D6050, R&D SYSTEM, Inc., Minneapolis, MN, USA) as we described before. The brain tissues were homogenized on ice in the RIPA buffer containing 25 mM Tris-HCl with pH 7.6, 150 mM NaCl, 1% sodium deoxycholate and 0.1% SDS (catalog number: 89901, Thermo Scientific, Rockford, IL, USA) and a protease inhibitor cocktail containing 10 mg/ml aproteinin, 5 mg/ml […], 5 mg/ml leupetin and 1 mM phenylmethane sulfonylfluoride (catalog number: SRE0055, Sigma-Aldrich, St. Louis, MO, USA). The supernatant was collected for ELISA detection after being centrifuged for 20 min (13,000 g, 4° C.) and the protein concentration was determined by the BCA method. Cytokines in the serum and supernatant of brain were detected according to the manufacturer's instruction. […]

[3] = Valeric acid in the blood by ELISA (pilot dosage experiment); assay type: in vivo, mouse; conditions: young mice, 100 mg/kg intraperitoneal twice at an interval of 7 h; blood 3 h after second injection; pilot study
Protocol: A pilot experiment was performed to determine the dosage of valeric acid used in this study. Eight-week old mice were divided into two groups: Y-Saline group that received two intraperitoneal 100 μl normal saline injections at an interval of 7 h, and Y-Valeric group that received two intraperitoneal 100 mg/kg in 100 μl valeric sodium injections at an interval of 7 h. One group of 18-month old mice that was labeled O-Saline received two intraperitoneal 100 μl normal saline injections at an interval of 7 h. Blood was harvested 3 h after the second injection of valeric sodium or normal saline to measure valeric acid.
Valeric acid in the blood harvested from the experiment to determine the dosage of valeric acid injected intraperitoneally was measured by using an ELISA kit (catalog number: JM-12270M1, Jingmei Biotechnology, Jiangsu, China) following the manufacturer's instructions.

C57BL/6J mice [4] = assay: Rotarod test after MCAO; assay type: in vivo, mouse; conditions: young mice, 100 mg/kg intraperitoneal 1 h before and 6 h after 120-min MCAO; 24 h after MCAO; vs saline
Protocol: as §1
Rotarod test was performed to evaluate the motor coordination as we described before. All mice received the training for three continuous days before the induction of brain ischemia. The formal test was performed just 24 h before and 24 h after the MCAO. […] The latency and the speed were recorded when the tested mice fell off the rod. […] The speed-latency index, which is latency(s)×speed (rpm), was calculated. The ratio of mean index of the five trials obtained after MCAO and before MCAO was calculated to reflect the change in coordinate function of each mouse.

IL-6 [5] = assay: ELISA of IL-6 in the brain; assay type: in vivo, mouse; conditions: young mice, 100 mg/kg intraperitoneal 1 h before and 6 h after 120-min MCAO; 24 h after MCAO; vs saline
Protocol: as §2

C57BL/6J mice [6] = assay: Infarct volume after MCAO; assay type: in vivo, mouse; conditions: young mice, 100 mg/kg intraperitoneal 1 h before and 6 h after 120-min MCAO; 24 h after MCAO; vs saline
Protocol: As we described previously, left MCAO with intravascular suture technique was performed to mice. Briefly, mice were anesthetized with isoflurane and the rectal temperature was maintained at 37±0.5° C. by the feedback-controlled heating system. A monofilament nylon suture (catalog number: 1622-A1, Beijing CiNontech Co. Ltd., Beijing, China) was used to induce the MCAO via the external carotid artery to the left internal carotid artery until slight resistance was felt. […]
The infarct volumes were assessed 24 h after MCAO by a blinded investigator after 2,3,5-triphenyltetrazolium chloride staining. […] The average infarct area of the rostral and caudal sides of each slice was calculated. The infarct volume of the brain slice was calculated by multiplying the average infarct area of the slice by the thickness of the slice. […] To correct the cerebral edema and differential shrinkage resulting from brain ischemia and tissue processing, the corrected brain infarct volume was calculated: corrected brain infarct volume in percentage=[right hemisphere volume-(left hemisphere volume-left infarction volume)]×100/right hemisphere volume.

gut microbiota = conditions: 300 mg/kg intraperitoneal once daily for 5 consecutive days; previous study [20]; cited from earlier work
IL-17 [7] = assay: ELISA of IL-17 in the brain; assay type: in vivo, mouse; conditions: mice without MCAO; 1 mg/kg by gastric gavage after each valeric sodium 100 mg/kg intraperitoneal injection, 7 days
Protocol: (§3) Mice were weighed and anesthetized with isoflurane at 24 h after MCAO. Blood samples were obtained from the right heart after thoracotomy. Blood was centrifuged (13,000 g, 4° C.) after it had been placed at 4° C. for 2 h for the collection of serum. After the collection of blood, mice were perfused with 4° C. saline for brain tissue harvesting. The cerebral cortex (anteroposterior: −1.5 to 2.5 mm, mediolateral: 1.0 to 3.0 mm) was dissected out. All dissection procedures were performed on ice.
(§4) IL-10, IL-17, IL-1β and IL-6 in the serum and brain were detected by using ELISA kits (catalog number: M1000B, M1700, MLB00C and D6050, R&D SYSTEM, Inc., Minneapolis, MN, USA) as we described before. The brain tissues were homogenized on ice in the RIPA buffer containing 25 mM Tris-HCl with pH 7.6, 150 mM NaCl, 1% sodium deoxycholate and 0.1% SDS (catalog number: 89901, Thermo Scientific, Rockford, IL, USA) and a protease inhibitor cocktail containing 10 mg/ml aproteinin, 5 mg/ml peptastin, 5 mg/ml leupetin and 1 mM phenylmethane sulfonylfluoride (catalog number: SRE0055, Sigma-Aldrich, St. Louis, MO, USA). The supernatant was collected for ELISA detection after being centrifuged for 20 min (13,000 g, 4° C.) and the protein concentration was determined by the BCA method. Cytokines in the serum and supernatant of brain were detected according to the manufacturer's instruction. The amount of IL-10, IL-17, IL-1β and IL-6 in each sample in the brain was normalized by its protein content.

IL-17 [8] = assay: ELISA of IL-17 in the serum; assay type: in vivo, mouse; conditions: mice without MCAO; 1 mg/kg by gastric gavage after each valeric sodium 100 mg/kg intraperitoneal injection, 7 days
Protocol: as §3, §4

C57BL/6J mice [9] = assay: Barnes maze test, young adult mice; assay type: in vivo, mouse; conditions: surgery mice; intracerebroventricular 10 μg/kg at 0, 24, 48 and 72 h after surgery; vs solvent
C57BL/6J mice [10] = assay: Novel object recognition test, young adult mice; assay type: in vivo, mouse; conditions: surgery mice; intracerebroventricular 10 μg/kg at 0, 24, 48 and 72 h after surgery; vs solvent
IL-1β [11] = assay: IL-1β in the hippocampus by ELISA; assay type: in vivo, mouse; conditions: intracerebroventricular injection at surgery; hippocampus 48 h after surgery
Protocol: (§5) IL-1β, IL-6, C3 and GDNF in the hippocampus were detected by using ELISA kits. For testing the IL-1β, IL-6 and GDNF, brain tissues were homogenized on ice in the RIPA buffer containing 25 mM Tris-HCl with pH 7.6, 150 mM NaCl, 1% sodium deoxycholate, 0.1% SDS and a protease inhibitor cocktail containing 10 mg/ml aproteinin, 5 mg/ml peptastin, 5 mg/ml leupetin and 1 mM phenylmethane sulfonylfluoride. For C3 testing, brain tissues were homogenized on ice in the PTR buffer (supplied in the kit). The supernatant was collected for ELISA detection after the homogenate was centrifuged at 13,000 g for 20 min at 4° C. and the protein concentration was determined by the BCA protein assay (Bio-Rad, Hemel Hempstead, Herts, UK). IL-1β, IL-6, C3 and GDNF in supernatant of brain were detected according to the manufacturer's instruction for ELISA, and the amount of them in each sample in the brain was normalized by its total protein content and was expressed as pg/mg protein.

IL-6 [12] = assay: IL-6 in the hippocampus by ELISA; assay type: in vivo, mouse; conditions: intracerebroventricular injection at surgery; hippocampus 48 h after surgery
Protocol: as §5

C3 = C3 in the hippocampus by ELISA; assay type: in vivo, mouse; conditions: intracerebroventricular injection at surgery; hippocampus 48 h after surgery
Protocol: as §5

## CCCCC(=O)[O-].[Na+] [valeric sodium]
C57BL/6J mice [1]
  neurological deficit scores: worse
IL-1β [2]
  IL-1β in the ischemic penumbral brain tissues: increased
[3]
  concentrations of valeric acid in the blood: a level similar to that in the old mice
C57BL/6J mice [4]
  performance on rotarod: poorer performance
IL-6 [5]
  IL-6 in the ischemic penumbral brain tissues: increased
C57BL/6J mice [6]
  infarct volume: larger

## Cc1nnc(SCC2=C(C(=O)O)N3C(=O)[C@@H](NC(=O)Cn4cnnn4)[C@H]3SC2)s1 [cefazolin]
Gut microbiota
  gut microbiota in the colon by 16S rRNA analyses: almost undetectable level

## C[C@]1(C(=O)N(CCCC(=O)O)Cc2cccc(Cl)c2)CCN1C(=O)c1csc2ccccc12 [GLPG-0974]
IL-17 [7]
  increase of IL-17 in the brain (cerebral cortex) caused by valeric acid: blocked the increase
IL-17 [8]
  increase of IL-17 in the blood caused by valeric acid: blocked the increase

## NC(N)=NCCC[C@H](NC(=O)COCC(c1ccccc1)c1ccccc1)C(=O)O [SB290157]
C57BL/6J mice [9]
  time to identify target box in Barnes maze: took less time
C57BL/6J mice [10]
  performance in novel object recognition test: improved the performance

B1: GDNF: recombinant mouse GDNF (glia-derived nerve factor) (protein, UniProt P48540 78-211, looked up)
Glial cell line-derived …: SPDKQAAALPRRERNRQAAAASPENSRGKGRRGQRGKNRGCVLTAIHLNVTDLGLGYETKEELIFRYCSGSCESAETMYDKILKNLSRSRRLTSDKVGQACCRPVAFDDDLSFLDDNLVYHILRKHSAKRCGCI
IL-1β [11]
  IL-1β levels in the hippocampus after surgery: reduced
IL-6 [12]
  IL-6 levels in the hippocampus after surgery: reduced
C3
  C3 levels in the hippocampus after surgery: reduced

B2: heat-inactivated GDNF: heat-denatured (5 min at 100° C.) GDNF solution (protein, UniProt P48540 78-211, looked up)
Glial cell line-derived …: B1 Glial cell line-derived …
modifications: heat-denatured
notes: heat-denatured (5 min at 100° C.) GDNF solution
IL-6 [12]
  IL-6 levels in the hippocampus after surgery: not
C3
  C3 levels in the hippocampus after surgery: not
